Assay results published in patent publication US20070043070A1, “Weak base salts” (priority 2000, published 2007).
“Also recorded” adds a separate entry of the source. Where a name gives a salt, the structure may show the parent alone. Read-outs that look alike come from different tables or passages of the source. Marks after values point to notes of the source that are not given here.

How the values were obtained:
[1] = cited from earlier work; for pKa: weak base compounds
[2] = Solubility determination of carbendazim salts in water (HPLC); details: for pH: saturated solution in water, Table 13; for PHmax: pH below which solubility plateaus or decreases (solution saturated with respect to salt)
Description: These were mixed by end-to-end rotation. Each sample was then filtered through a 0.45 μm PVDF filter. The filterate was collected in two or more fractions, which were analyzed separately by HPLC to ensure that there were no misleading solubility measurements resulting from adsorption onto the filter. Filter adsorption was assumed to be negligible when the concentration of successive fractions agreed within ±5%. The composition of the residual solid was examined to ensure that at least some of the solid phase that was in equilibrium with the solution was indeed the salt.
The Ksp determinations were generally calculated directly from the observed carbendazim concentration once it was established that the residual solid phase contained excess salt. Since […] results in the neutralization of an equivalent amount of counterion to its free base form, the same procedure could be used to calculate Ksp in systems where free acid precipitation occurred prior to saturation of the system with the given salt.
A Beckman Gold HPLC system equipped with a model no. 168 detector at 280 nm was used for all assays. […] The flow rate was controlled at 0.8 ml/min, with carbendazim's retention time at 3.5 min. The injection volume was 20 μL. The evaluation of the assay was conducted by using carbendazim standard solutions at concentrations ranging from 0.1 μg/ml to 100 μg/ml.

[3] = Moisture sorption studies (desiccators at 43% and 81% RH, 25° C., 8 days; PXRD of the solid afterwards); type: physicochemical; details: for Hygroscopicity: gain of moisture: hygrostat for 8 days at 43% RH; for PXRD pattern / solid state form after storage / moisture adsorbed: 8 days; for hygroscopicity in words: 43 and 81% RH; for moisture adsorbed: 25° C.
Description: The PXRD patterns of different salts of carbendazim were determined at ambient temperature and atmosphere using a Philips PM 990/100 diffractometer (Philips, The Netherlands). The x-ray generator (PW3373/00 Cu LFF DK119706) has a copper radiation source which generates a voltage of 50 kV, and a current of 40 mA. Counts were measured using a X'Celerator detector which is based on real time multiple strip (RTMS) technology. Samples were packed into zero background silicon sample holders, and precautions were used to avoid introducing preferred orientation of the crystallites. The samples were subjected to a spinning movement having a rotation time of 4 s. The samples were scanned with the diffraction angle, 2θ, increasing from 3° to 63°, with a step size of 0.0167° and a counting time of 15.24 s. The XRD pattern traces of samples (salts subjected to moisture sorption or stability) were compared with regard to peak position and relative intensity, peak shifting, and the presence or lack of peaks in certain angular regions.
The moisture sorption of the various salts was determined by exposing weighed amounts (˜2 to 3 mg) of salts in a 4 ml glass vial, which was placed in sealed desiccators containing saturated salt solutions. Saturated salt solutions that give defined relative humidities (as a function of temperature) have been reported in various handbooks containing physical and chemical data.
The current study was performed at 25° C. with relative humidity values of 43% (saturated solution of potassium carbonate) and 81% (saturated solution of potassium bromide). The samples were stored in desiccators of known relative humidity for 8 days, following which they were re-weighed to calculate the % weight change. The solid phases were then analyzed using PXRD to ascertain the effect of the moisture content.

[4] = Dissolution studies in Millipore water; type: physicochemical; details: for completeness of dissolution: 60 min; for t40% (time for dissolution of 40% of given amount): water, amount equivalent to 50 mg carbendazim; for dissolution compared, in words: dissolution profiles
[5] = Dissolution studies in 0.1N hydrochloric acid; type: physicochemical; details: for t60% (time for dissolution of 60% of given amount): pH 1, amount equivalent to 50 mg carbendazim
Description: A weighed amount of salt (so as to have 50 mg of carbendazim) was triturated to provide a uniform particle size and was suspended in the dissolution media. The volume of dissolution media was 250 ml, and the stirring rate was maintained at 250 rpm. One ml aliquot samples filtered through a 0.45 μm Millipore filter were withdrawn at 1, 5, 10, 15, 20, 30, 45, and 60 min, respectively. One ml of the dissolution medium was added to the dissolution vessel after each sampling period to maintain constant volume. The samples were then analyzed by HPLC.

[6] = Dehydration kinetics by TGA (Flynn and Wall method); type: physicochemical; details: TGA heating rates 5-15° C. per minute
Description: TGA traces were recorded with a TA Instruments TGA Q-50 (TA Instruments, New Castle, Del.). The sample weight was approximately 2-4 mg, and heating rates of 2-15° C./min under nitrogen gas flow of 60 ml/min were used.
The dehydration kinetics of carbendazim hydrochloride dihydrate was studied by subjecting the crystals to TGA heating rates of 5, 7, 10, 12, and 15° C. per minute. The activation energy (Ea) for the dehydration process was calculated from these TGA data according to the method described by Flynn and Wall (J. H. Flynn and L. A. Wall, J. Research Nat. Bur. Standards A, Phys. Chem. A71, 25 (1967); J. Polym. Sci., Pol. Left. 5, 191 (1967); J. Polym. Sci., Pol. Lett. 4, 323 (1966)). This method involves the analysis of weight loss versus temperature at different heating rates (β) to determine the corresponding absolute temperatures at a constant weight loss (C). Graphs of negative logarithm of heating rates (expressed in ° C./s) (−log β) versus 1/T were plotted (FIG. 8) and the activation energy calculated from the slope of the curves. The activation energy for the dehydration of the hydrochloride salt, calculated from the TGA data, was ˜64 kJ/mol.

In the case of Cc1cc(-c2nc3ccccc3s2)ccc1N [AMPB], the pKa [1] is given as 4.

In the case of Cc1cc(NC(=O)NC(=O)c2ccccc2N(C)C)ccc1Oc1ncc(Br)cn1 [BPU NSC 639829], the pKa [1] is given as “˜5”.

In the case of O=S(=O)(O)c1ccccc1 [Benzenesulfonic acid], the Pka1 ([1]; acids used as counter-ions, Table 1) is given as 0.7.

In the case of CCCCOC(=O)c1ccc(N)cc1 [Butamben], the pKa [1] is listed as 5.4.

In the case of CN/C(=N\CCSCc1nc[nH]c1C)NC#N [Cimetadine], the pKa [1] is given as 6.8.

With COC(=O)Nc1nc2ccccc2[nH]1 [Free Base, carbendazim, reference compound] the “S (aqueous solubility)” value [2] was 6 µg/mL, the Sw [2] was 0.006 mg/mL and the “pH of saturated sol.” value [2] was 5.90. For the same compound, the “Hygroscopicity: gain of moisture” value [3] was “Gain 0.36%”, the “dissolved fraction of the initial dose” value ([4]; Millipore water, after 60 min) was “less than 1%” and the completeness of dissolution ([5]; 0.1N HCl) was “completely soluble”. The “t60% (time for dissolution of 60% of given amount)” value [5] was 5 min.

For CC(=O)O.CCCCCCCCCCCCCCCCCC1=NCCN1 [Glyodin], the pKa [1] is listed as “˜7”.

With COC(=O)Nc1nc2ccccc2[nH]1 [Hydrochloride, carbendazim hydrochloride] the “S (aqueous solubility)” value [2] was 6080 µg/mL, the Sw [2] was 6.080 mg/mL and the “pH of saturated sol.” value [2] was 1.68. The pH ([2]; 25° C.) was 1.68, the “PXRD pattern / solid state form after storage” value (from here on “PXRD pattern / solid state form”) ([3]; 43% RH) was “remained unchanged” and the hygroscopicity in words [3] was “minimally hygroscopic”. For the same compound, the “PXRD pattern / solid state form” value ([3]; 81% RH) was “remained unchanged”, the “Hygroscopicity: gain of moisture” value ([3]; hydrochloride) was “Gain 0.13%” and the completeness of dissolution ([4]; Millipore water) was “did not completely dissolve”. For the same compound, the “t40% (time for dissolution of 40% of given amount)” value [4] was “˜5 min”, the “activation energy for the dehydration” value [6] was about 15.3 kcal/mol and the “t60% (time for dissolution of 60% of given amount)” value ([5]; hydrochloride) was 2 to 3 min.

For Clc1ccc(COC(Cn2ccnc2)c2ccc(Cl)cc2Cl)c(Cl)c1 (stereo not shown) [Miconazole], the pKa [1] is given as 6.7.

For CCN(CC)C(=O)c1cccnc1 [Nikethamide], the pKa [1] is listed as 3.5.

In the case of carbendazim besylate, the “pH of saturated sol.” value ([2]; Table 14) is reported as 1.76, the PHmax [2] is reported as 1.65 and the pH ([2]; 25° C.) is reported as 1.76. For the same compound, the “S (aqueous solubility)” value ([2]; water, 25° C.) was 6992 µg/mL, the Sw ([2]; water, Table 14) was 6.992 mg/mL and the “PXRD pattern / solid state form” value ([3]; 43% RH) was “remained unchanged”. For the same compound, the moisture adsorbed ([3]; 81% RH) was “approximately 4.3%”, the “PXRD pattern / solid state form” value ([3]; 81% RH) was “remained unchanged” and the “Hygroscopicity: gain of moisture” value [3] was “Gain 0.18%”. The completeness of dissolution ([4]; Millipore water) was “did not completely dissolve”, the “t40% (time for dissolution of 40% of given amount)” value [4] was “˜5 min” and the “t60% (time for dissolution of 60% of given amount)” value [5] was 2 to 3 min.

For carbendazim hemisulfate monohydrate, the “PXRD pattern / solid state form” value ([3]; 43% RH) was “remained unchanged”, the hygroscopicity in words [3] was “minimally hygroscopic” and the “PXRD pattern / solid state form” value ([3]; 81% RH) was “remained unchanged”. For the same compound, the “Hygroscopicity: gain of moisture” value [3] was “Gain 0.38%”, the completeness of dissolution ([4]; Millipore water) was “did not completely dissolve” and the “t40% (time for dissolution of 40% of given amount)” value [4] was “˜3 min”. For the same compound, the “t60% (time for dissolution of 60% of given amount)” value [5] was 2 to 3 min.

With carbendazim mesylate the “pH of saturated sol.” value ([2]; Table 14) was 0.80, the pH ([2]; 25° C.) was 0.8 and the “S (aqueous solubility)” value ([2]; water, 25° C.) was over 205662 µg/mL. For the same compound, the “S (aqueous solubility)” value ([2]; water, 25° C., listed as mesylate) was over 200000 µg/mL, the Sw ([2]; water, Table 14) was >205.662* mg/ml and the “PXRD pattern / solid state form” value ([3]; 43% RH) was “moisture, same”. For the same compound, the hygroscopicity in words [3] was “highly hygroscopic”, the moisture adsorbed ([3]; 81% RH) was 10.1% and the “PXRD pattern / solid state form” value ([3]; 81% RH) was “showed changes in their PXRD patterns”. The “Hygroscopicity: gain of moisture” value [3] was “Gain 2.04%”, the “time to complete dissolution” value ([4]; Millipore water) was at most 30 min and the “dissolution compared, in words” value ([4]; Millipore water) was “dissolved the fastest; also recorded: best dissolution time”. The “t40% (time for dissolution of 40% of given amount)” value [4] was under 1 min, the “time for dissolving 100% of sample” value ([5]; 0.1N HCl, pH 1.1) was “instanteously soluble” and the “t60% (time for dissolution of 60% of given amount)” value [5] was 1 min.

For carbendazim phosphate, the “PXRD pattern / solid state form” value ([3]; 43% RH) was “changed”, the “PXRD pattern / solid state form” value ([3]; 43% RH, listed as phosphate) was “loses intensity in 28 0 2E reflection” and the “PXRD pattern / solid state form” value ([3]; 43% RH, listed as phosphate salt) was “change form”. The hygroscopicity in words [3] was “highly hygroscopic”, the moisture adsorbed ([3]; 81% RH) was 7.5% and the “PXRD pattern / solid state form” value ([3]; 81% RH) was “showed changes in their PXRD patterns”. For the same compound, the “Hygroscopicity: gain of moisture” value [3] was “Gain 0.88%”, the completeness of dissolution ([4]; Millipore water) was “did not completely dissolve” and the “dissolution compared, in words” value ([4]; Millipore water) was “better dissolution than the 1:1 physical mixture”. The “t40% (time for dissolution of 40% of given amount)” value [4] was “˜5 min” and the “t60% (time for dissolution of 60% of given amount)” value [5] was 2 to 3 min.

With carbendazim tosylate the “pH of saturated sol.” value ([2]; Table 14) was 1.93, the Ksp ([2]; calculated after correcting for common ion effect) was 4.1 × 10^−4 M^2 and the PHmax [2] was 1.82. For the same compound, the pH ([2]; 25° C.) was 1.93, the “S (aqueous solubility)” value ([2]; water, 25° C.) was 4815 µg/mL and the Sw ([2]; water, Table 14) was 4.815 mg/mL. For the same compound, the “PXRD pattern / solid state form” value ([3]; 43% RH) was “remained unchanged”, the moisture adsorbed ([3]; 81% RH) was “approximately 4.3%” and the “PXRD pattern / solid state form” value ([3]; 81% RH) was “remained unchanged”. The “Hygroscopicity: gain of moisture” value [3] was “Gain 0.27%”, the completeness of dissolution ([4]; Millipore water) was “did not completely dissolve” and the “t40% (time for dissolution of 40% of given amount)” value [4] was “˜5 min”. The “t60% (time for dissolution of 60% of given amount)” value [5] was 2 to 3 min.
